The source of these data is patent publication US20240051960A1, “SPIROCYCLIC IMIDAZOLIDINONES AND IMIDAZOLIDINEDIONES FOR TREATMENT OF LIGHT CHAIN AMYLOIDOSIS” (Protego Biopharma, Inc., priority 2021, published 2024).

The subject of the experiment is Recombinant amyloidogenic full length light chain protein WIL-FL T46L. The experiment can be described thus: Differential Scanning Fluorimetry (thermal shift) assay. Type of experiment: binding. The settings on record: protein and compounds incubated at RT for 30 min before adding the dye, Thermal Shift Protein Stability Kit, 96-well plates. As to the method: Differential Scanning Fluorimetry Assay
The stabilization effects the compounds have on the immunoglobulin light chain protein is quantitively measured using a thermal shift assay. Recombinant amyloidogenic full length light chain protein WIL-FL T46L is produced in E. coli, purified, and used in the assay. The Thermal Shift Protein Stability Kit from Biotium is used and the assay is done in 96-well Plates following the manufacture's instructions. The protein and compounds are incubated at RT for 30 min before adding the dye and subjected to the thermal shift assay. The thermal stability of each sample is then determined using standard curve fitting methods.
Compounds that induce shifts in the ranges below are listed in the table below: • 0-0.5° C.=* • >0.5-1° C.=** • >1-1.5° C.=*** • >1.5° C.=****
On the technique in general: DSF heats the sample and reads unfolding from a dye or from intrinsic fluorescence.

As to `O=C(CN1C(=O)NC2(CCN(c3c[nH]c(=O)[nH]c3=O)CC2)C1=O)Nc1ccc(C(F)(F)F)cc1` [Compound 90], the “Thermal Shift” value is recorded as “**** (>1.5° C.=****)”.
